Source: ChEMBL document CHEMBL1148822, “Principal component analysis differentiates the receptor binding profiles of three antipsychotic drug candidates from current antipsychotic drugs” (J Med Chem, 2007)
Activity calls are given as the source filed them. The calls are words filed in the database; no cut-off is given here.

Legend:
[1] = target: T1, 5-hydroxytryptamine receptor 6 (Homo sapiens, UniProt P50406); conditions: HEK293
Description: (§1) Displacement of [3H]LSD from human 5HT6 receptor expressed in HEK293 cells

[2] = target: T2, 5-hydroxytryptamine receptor 2C (Homo sapiens) (UniProt P28335); conditions: CHO
T2 sequence (whole entry): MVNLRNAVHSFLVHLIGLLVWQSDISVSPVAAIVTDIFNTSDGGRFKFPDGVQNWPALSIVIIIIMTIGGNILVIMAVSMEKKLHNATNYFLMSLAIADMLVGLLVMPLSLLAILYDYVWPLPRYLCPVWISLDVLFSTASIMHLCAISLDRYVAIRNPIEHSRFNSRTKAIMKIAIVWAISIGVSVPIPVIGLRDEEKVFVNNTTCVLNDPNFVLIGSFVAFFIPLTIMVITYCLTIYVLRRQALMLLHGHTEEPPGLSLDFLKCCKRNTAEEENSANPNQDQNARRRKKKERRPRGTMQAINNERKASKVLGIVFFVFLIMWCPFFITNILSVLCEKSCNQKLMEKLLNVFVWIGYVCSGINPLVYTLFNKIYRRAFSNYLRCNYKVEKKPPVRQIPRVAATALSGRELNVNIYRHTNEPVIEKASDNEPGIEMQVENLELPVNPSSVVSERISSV
Description: (§2) Displacement of [3H]mesulergine from 5HT2C receptor expressed in CHO cells

[3] = target: T3, 5-hydroxytryptamine receptor 1A (Homo sapiens, UniProt P08908); assay: biochemical
T3 sequence (P08908 whole entry): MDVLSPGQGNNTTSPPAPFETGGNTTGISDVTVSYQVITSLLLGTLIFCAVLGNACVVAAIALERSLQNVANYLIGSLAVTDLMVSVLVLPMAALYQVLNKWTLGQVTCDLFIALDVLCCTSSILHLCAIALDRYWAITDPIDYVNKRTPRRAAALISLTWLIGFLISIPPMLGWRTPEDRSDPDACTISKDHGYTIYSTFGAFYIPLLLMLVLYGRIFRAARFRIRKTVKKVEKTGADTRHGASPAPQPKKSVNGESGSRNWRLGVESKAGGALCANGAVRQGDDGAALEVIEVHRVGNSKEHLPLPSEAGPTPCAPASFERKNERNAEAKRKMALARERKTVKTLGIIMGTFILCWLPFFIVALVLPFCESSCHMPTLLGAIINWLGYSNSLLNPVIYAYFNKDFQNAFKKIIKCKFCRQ
Description: Displacement of [3H]8-OH-DPAT from human 5HT1A receptor expressed in CHO cells

D(4) dopamine receptor = target: T4, D(4) dopamine receptor (Homo sapiens, UniProt P21917); assay: biochemical
T4 sequence (P21917 whole entry): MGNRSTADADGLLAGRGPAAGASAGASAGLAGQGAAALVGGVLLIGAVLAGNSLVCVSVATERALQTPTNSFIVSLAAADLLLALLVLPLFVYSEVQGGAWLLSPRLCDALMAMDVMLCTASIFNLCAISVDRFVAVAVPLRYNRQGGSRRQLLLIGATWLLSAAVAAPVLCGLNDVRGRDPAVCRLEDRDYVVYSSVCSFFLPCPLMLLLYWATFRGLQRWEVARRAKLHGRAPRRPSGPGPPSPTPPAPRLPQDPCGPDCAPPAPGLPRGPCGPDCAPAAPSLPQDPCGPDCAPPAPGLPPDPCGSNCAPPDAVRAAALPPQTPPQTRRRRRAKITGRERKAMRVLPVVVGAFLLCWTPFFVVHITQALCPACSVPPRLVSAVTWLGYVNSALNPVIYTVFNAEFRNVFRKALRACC
Description: Displacement of [3H]spiperone from human dopamine D4.4 receptor expressed in CHO cells

[4] = target: Sodium-dependent serotonin transporter (Homo sapiens, UniProt P31645); assay: biochemical; type: cell-based, HEK293
Sodium-dependent serotonin transporter, sequence (P31645 whole entry): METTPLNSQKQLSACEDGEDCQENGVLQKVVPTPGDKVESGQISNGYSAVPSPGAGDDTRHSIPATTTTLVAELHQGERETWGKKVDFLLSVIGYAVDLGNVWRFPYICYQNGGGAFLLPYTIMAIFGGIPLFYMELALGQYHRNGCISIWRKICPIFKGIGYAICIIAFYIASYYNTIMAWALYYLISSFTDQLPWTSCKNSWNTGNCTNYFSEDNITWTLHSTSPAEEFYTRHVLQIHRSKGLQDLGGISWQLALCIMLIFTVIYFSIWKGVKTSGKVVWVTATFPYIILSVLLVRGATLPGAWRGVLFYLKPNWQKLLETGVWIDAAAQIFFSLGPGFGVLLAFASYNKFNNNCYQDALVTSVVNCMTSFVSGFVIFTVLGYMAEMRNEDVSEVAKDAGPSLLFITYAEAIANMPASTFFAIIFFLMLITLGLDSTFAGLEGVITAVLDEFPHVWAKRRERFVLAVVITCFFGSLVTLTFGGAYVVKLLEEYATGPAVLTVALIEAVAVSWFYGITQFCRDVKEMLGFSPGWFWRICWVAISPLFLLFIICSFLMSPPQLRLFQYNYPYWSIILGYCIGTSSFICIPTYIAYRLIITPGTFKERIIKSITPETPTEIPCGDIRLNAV
Description: Displacement of [3H]paraxetine from human 5HT transporter expressed in HEK293 cells

Histamine H1 receptor = Histamine H1 receptor (Cavia porcellus, UniProt P31389); assay: biochemical
Histamine H1 receptor, sequence (P31389 whole entry): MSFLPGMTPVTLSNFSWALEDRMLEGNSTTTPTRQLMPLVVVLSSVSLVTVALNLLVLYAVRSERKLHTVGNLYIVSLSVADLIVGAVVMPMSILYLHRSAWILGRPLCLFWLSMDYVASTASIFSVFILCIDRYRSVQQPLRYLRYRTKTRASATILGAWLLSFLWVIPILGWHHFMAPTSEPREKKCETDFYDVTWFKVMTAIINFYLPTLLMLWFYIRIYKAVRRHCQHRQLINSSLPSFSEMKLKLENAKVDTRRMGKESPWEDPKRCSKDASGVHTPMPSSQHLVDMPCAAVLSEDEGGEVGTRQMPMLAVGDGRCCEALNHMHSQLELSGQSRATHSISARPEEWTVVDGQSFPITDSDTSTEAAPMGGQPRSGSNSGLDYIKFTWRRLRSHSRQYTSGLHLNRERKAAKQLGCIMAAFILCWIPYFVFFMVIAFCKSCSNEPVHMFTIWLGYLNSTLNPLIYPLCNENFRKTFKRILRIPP
Description: (§3) Displacement of [3H]pyrilamine from histaminergic H1 receptor guinea pig cerebellum

D(3) dopamine receptor = D(3) dopamine receptor (Homo sapiens, UniProt P35462); assay: biochemical
D(3) dopamine receptor, sequence (P35462 whole entry): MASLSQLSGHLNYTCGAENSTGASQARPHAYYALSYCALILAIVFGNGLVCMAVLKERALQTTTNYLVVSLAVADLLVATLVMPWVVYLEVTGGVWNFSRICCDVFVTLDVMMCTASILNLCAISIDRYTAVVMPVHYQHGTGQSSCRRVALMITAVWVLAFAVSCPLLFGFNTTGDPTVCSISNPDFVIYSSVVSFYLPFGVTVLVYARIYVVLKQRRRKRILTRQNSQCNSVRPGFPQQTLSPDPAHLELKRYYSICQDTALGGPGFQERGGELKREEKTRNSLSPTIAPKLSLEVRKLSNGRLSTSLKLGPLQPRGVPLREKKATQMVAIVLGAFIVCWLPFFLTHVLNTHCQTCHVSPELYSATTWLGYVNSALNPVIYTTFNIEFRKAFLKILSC
Description: Displacement of [3H]spiperone from human dopamine D3 receptor expressed in CHO cells

[5] = target: 5-hydroxytryptamine receptor 2A (Homo sapiens, UniProt P28223); assay: biochemical; type: cell-based, CHO
5-hydroxytryptamine receptor 2A, sequence (P28223 whole entry): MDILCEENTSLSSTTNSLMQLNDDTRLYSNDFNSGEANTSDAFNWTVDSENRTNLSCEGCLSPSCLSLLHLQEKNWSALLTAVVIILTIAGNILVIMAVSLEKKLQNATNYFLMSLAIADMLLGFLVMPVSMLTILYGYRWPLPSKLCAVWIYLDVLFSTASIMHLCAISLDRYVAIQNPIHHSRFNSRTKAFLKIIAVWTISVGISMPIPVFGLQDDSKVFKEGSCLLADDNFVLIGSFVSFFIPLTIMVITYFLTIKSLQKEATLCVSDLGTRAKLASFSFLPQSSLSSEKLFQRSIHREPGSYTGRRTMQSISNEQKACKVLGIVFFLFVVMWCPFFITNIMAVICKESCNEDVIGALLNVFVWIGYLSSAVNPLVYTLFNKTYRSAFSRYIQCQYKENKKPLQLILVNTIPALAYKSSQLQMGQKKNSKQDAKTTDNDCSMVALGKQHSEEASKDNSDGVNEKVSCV
Description: Displacement of [3H]ketanserin from human 5HT2A receptor expressed in CHO cells

[6] = target: T5, 5-hydroxytryptamine receptor 2C (Homo sapiens, UniProt P28335); assay: biochemical
T5 sequence (P28335 whole entry): T2 sequence (whole entry)
Description: as §2

[7] = target: 5-hydroxytryptamine receptor 7 (Homo sapiens, UniProt P34969); assay: biochemical
5-hydroxytryptamine receptor 7, sequence (P34969 whole entry): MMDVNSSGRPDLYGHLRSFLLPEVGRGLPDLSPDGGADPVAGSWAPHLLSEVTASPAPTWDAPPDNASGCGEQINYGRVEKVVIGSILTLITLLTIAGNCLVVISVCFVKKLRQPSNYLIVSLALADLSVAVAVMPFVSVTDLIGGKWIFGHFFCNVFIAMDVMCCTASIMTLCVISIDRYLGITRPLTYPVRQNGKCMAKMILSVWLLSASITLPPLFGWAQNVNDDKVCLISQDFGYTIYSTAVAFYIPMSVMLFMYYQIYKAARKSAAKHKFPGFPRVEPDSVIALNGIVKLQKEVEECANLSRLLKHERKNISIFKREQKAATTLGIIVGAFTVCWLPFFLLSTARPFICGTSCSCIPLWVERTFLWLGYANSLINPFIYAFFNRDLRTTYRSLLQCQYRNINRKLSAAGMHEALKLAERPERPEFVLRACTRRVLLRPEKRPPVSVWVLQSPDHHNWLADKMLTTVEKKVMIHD
Description: Displacement of [3H]LSD from human 5HT7 receptor expressed in CHO cells

[8] = target: T6, 5-hydroxytryptamine receptor 2B (Homo sapiens, UniProt P41595); assay: biochemical
T6 sequence (P41595 whole entry): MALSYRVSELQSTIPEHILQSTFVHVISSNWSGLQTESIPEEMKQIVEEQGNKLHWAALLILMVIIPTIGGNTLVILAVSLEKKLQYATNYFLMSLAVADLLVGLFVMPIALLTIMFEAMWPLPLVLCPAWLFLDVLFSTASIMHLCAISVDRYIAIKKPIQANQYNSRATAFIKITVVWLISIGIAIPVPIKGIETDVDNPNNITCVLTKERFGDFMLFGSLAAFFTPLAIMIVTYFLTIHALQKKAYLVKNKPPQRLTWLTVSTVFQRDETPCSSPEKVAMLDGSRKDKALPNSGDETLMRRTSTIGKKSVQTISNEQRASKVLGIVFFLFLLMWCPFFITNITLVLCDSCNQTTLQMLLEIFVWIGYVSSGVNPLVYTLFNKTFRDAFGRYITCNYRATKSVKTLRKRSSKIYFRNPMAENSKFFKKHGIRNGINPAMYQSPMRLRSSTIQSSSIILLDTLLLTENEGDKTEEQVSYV
Description: (§4) Displacement of [3H]LSD from 5HT2B receptor expressed in CHO cells

[9] = target: T7, Adrenergic receptor alpha-1 (Rattus norvegicus, UniProt P15823+P23944+P43140)
T7 sequence (P15823 whole entry): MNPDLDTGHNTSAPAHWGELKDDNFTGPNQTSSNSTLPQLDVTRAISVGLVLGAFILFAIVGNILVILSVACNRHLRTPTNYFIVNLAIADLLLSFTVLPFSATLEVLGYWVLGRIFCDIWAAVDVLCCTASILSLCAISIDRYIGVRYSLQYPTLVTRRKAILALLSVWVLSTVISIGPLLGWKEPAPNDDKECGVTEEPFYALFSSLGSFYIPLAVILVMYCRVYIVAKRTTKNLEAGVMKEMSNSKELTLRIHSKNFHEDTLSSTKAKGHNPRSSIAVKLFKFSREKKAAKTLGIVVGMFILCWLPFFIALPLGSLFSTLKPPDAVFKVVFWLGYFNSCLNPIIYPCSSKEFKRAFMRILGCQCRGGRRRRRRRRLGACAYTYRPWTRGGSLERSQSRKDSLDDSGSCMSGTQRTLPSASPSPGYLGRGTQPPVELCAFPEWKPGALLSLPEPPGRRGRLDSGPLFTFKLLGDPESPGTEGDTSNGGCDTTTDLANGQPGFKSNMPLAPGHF
T7 sequence (P23944 whole entry): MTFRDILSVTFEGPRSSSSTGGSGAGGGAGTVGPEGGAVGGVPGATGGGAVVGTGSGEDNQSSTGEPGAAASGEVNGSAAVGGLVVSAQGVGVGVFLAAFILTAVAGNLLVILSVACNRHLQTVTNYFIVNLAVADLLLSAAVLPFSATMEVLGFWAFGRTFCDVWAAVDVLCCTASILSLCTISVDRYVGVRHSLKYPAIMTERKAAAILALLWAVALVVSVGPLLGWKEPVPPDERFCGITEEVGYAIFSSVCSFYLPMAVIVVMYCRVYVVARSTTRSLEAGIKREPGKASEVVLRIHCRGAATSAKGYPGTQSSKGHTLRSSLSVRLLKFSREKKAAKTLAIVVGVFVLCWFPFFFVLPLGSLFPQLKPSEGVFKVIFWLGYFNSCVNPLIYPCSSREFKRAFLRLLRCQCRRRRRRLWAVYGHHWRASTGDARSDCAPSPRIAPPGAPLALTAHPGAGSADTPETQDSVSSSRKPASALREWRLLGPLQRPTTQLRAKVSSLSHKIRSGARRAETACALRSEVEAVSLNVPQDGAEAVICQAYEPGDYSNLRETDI
T7 sequence (P43140 whole entry): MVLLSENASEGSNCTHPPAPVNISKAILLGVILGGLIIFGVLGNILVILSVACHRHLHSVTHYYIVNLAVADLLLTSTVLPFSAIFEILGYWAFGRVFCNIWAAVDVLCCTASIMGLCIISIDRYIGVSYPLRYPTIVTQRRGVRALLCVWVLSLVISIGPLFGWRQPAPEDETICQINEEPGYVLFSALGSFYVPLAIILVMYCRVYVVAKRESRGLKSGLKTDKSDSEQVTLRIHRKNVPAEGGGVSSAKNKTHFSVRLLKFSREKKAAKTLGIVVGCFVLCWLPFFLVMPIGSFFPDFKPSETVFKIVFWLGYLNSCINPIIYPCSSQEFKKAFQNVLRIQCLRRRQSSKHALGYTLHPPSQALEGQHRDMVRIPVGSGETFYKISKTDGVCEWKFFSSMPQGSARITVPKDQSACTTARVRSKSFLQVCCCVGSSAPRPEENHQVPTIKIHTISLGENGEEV
Description: Displacement of [3H]prazosin from adrenergic alpha1 receptor in rat cerebral cortex

[10] = target: T1, 5-hydroxytryptamine receptor 6; assay: biochemical
Description: as §1

[11] = target: Serotonin 3 (5-HT3) receptor; conditions: hek293
Description: Displacement of [3H]BLR-43694 from human 5HT3 receptor expressed in HEK293 cells

[12] = target: Histamine H1 receptor (Cavia porcellus) (UniProt P31389); conditions: Cerebellum
Histamine H1 receptor (Cavia porcellus), sequence (P31389 whole entry): as the sequence (P31389 whole entry) above
Description: as §3

[13] = target: T8, Adrenergic receptor alpha-2 (Rattus norvegicus, UniProt P22086+P19328+P22909)
T8 sequence (P22086 whole entry): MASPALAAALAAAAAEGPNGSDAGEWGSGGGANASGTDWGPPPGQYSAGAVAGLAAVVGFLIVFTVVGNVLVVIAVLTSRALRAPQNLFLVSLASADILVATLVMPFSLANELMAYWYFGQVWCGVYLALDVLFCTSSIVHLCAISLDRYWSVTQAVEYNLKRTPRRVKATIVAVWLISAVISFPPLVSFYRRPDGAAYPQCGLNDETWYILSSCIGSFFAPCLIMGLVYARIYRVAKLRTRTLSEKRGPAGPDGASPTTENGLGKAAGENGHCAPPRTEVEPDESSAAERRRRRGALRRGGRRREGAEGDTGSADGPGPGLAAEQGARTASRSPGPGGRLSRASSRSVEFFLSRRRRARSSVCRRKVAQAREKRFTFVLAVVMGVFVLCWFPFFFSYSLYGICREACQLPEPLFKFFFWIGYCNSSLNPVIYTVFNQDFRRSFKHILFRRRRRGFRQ
T8 sequence (P19328 whole entry): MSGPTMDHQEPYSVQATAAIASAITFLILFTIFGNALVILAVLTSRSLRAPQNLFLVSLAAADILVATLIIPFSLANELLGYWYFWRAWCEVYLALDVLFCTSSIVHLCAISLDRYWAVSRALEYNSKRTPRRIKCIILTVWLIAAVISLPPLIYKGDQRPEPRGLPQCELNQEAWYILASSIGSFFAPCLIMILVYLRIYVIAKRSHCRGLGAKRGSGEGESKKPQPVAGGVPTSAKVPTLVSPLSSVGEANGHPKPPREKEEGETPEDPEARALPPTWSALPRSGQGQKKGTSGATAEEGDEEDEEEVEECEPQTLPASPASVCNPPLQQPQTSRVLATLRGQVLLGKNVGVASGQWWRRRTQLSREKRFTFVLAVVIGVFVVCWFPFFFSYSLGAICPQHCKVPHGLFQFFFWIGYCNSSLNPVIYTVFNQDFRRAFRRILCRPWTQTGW
T8 sequence (P22909 whole entry): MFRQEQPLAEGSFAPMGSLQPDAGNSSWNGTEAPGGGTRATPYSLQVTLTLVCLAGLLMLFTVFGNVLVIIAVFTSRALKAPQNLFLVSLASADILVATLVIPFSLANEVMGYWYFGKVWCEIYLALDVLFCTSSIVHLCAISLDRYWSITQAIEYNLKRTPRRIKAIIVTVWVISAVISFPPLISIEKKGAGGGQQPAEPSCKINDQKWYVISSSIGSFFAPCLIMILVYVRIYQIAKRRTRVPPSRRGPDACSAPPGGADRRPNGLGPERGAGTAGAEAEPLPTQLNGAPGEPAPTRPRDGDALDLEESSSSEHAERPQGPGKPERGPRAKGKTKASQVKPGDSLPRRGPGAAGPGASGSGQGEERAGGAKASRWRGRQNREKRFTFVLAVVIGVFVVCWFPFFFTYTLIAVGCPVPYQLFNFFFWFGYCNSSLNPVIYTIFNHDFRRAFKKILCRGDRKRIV
Description: Displacement of [3H]RX 821002 from adrenergic alpha-2 receptor in rat cerebral cortex

[14] = target: T6, 5-hydroxytryptamine receptor 2B; conditions: CHO
Description: as §4

T1 sequence (P50406 whole entry): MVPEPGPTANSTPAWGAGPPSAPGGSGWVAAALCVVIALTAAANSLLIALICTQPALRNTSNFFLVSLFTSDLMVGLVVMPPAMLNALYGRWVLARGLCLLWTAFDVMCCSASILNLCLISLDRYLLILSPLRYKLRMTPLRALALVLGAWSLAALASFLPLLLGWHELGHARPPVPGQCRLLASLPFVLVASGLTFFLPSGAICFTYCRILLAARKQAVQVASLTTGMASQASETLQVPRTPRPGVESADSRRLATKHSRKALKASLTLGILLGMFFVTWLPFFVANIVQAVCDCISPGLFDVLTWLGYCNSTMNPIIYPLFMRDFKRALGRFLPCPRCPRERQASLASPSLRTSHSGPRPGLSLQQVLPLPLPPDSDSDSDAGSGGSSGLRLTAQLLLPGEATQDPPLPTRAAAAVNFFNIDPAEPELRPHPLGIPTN

SMILES	Activity [1]	Activity [2]	Ki [3]	Ki (Histamine H1 receptor)	Ki [7]	Ki [8]	Log Ki [9]	other results
Cc1nc2n(c(=O)c1CCN1CCC(c3noc4cc(F)ccc34)CC1)CCCC2	inactive	–	–	–	–	–	–	–
OCCOCCN1CCN(C2=Nc3ccccc3Sc3ccccc32)CC1 [QUETIAPINE]	inactive	inactive	–	–	–	–	–	–
C[C@H]1Oc2c(cccc2N2CCN(CCCc3c[nH]c4ccc(F)cc34)CC2)NC1=O	inactive	–	5.01 nM	126 nM	7.94 nM	1 nM	-7.8	Ki (D(4) dopamine receptor): 1.58 nM; Ki [4]: 0.251 nM; Ki (D(3) dopamine receptor): 0.501 nM; Ki [5]: 20 nM; Ki [6]: 200 nM
O=C1Cc2cc(CCN3CCN(c4nsc5ccccc45)CC3)c(Cl)cc2N1 [ZIPRASIDONE]	–	–	1.58 nM	15.8 nM	5.01 nM	1.58 nM	-8.1	Ki [10]: 63.1 nM; Log Ki [11]: -6.4
CCN1CCCC1CNC(=O)c1cc(S(=O)(=O)CC)c(N)cc1OC (stereo not given) [AMISULPRIDE]	inactive	inactive	–	–	–	–	–	Activity [12]: inactive; Log Ki [13]: -6.9
O=C1c2ccccc2C(=O)N1CCCCN1CC=C(c2c[nH]c3ccc(F)cc23)CC1	–	–	2.51 nM	31.6 nM	100 nM	1.58 nM	–	Ki (D(4) dopamine receptor): 79.4 nM; Ki [4]: 0.794 nM; Ki [10]: 398 nM; Ki (D(3) dopamine receptor): 0.794 nM; Ki [5]: 100 nM; Ki [6]: 39.8 nM; Log Ki [13]: -6.6
Fc1ccc(-c2cncc(CN3CCN(c4cccc5c4OCCO5)CC3)c2)cc1 [ADOPRAZINE]	inactive	inactive	–	–	–	12.6 nM	-6.3	Activity [12]: inactive
Cc1cc2c(s1)Nc1ccccc1N=C2N1CCN(C)CC1 [OLANZAPINE]	–	–	–	–	–	–	–	Log Ki [11]: -6.7
O=C(CCCN1CCC(O)(c2ccc(Cl)cc2)CC1)c1ccc(F)cc1	inactive	inactive	–	–	–	–	–	Activity [14]: inactive
